# Values of other authors in PMC11734723 (Science Advances, 2025).
# Assays:
# [1] = system: collagen-induced arthritis (CIA) mouse model; conditions: administered beginning at the time of arthritis induction; cited from earlier work
# [2] = system: RANKL-induced osteoclast differentiation; conditions: cited from earlier work
# Orai channels = conditions: cited from earlier work
smiles,measurement,setting,value
"CCC(=O)Nc1ccc(Cl)c(Cl)c1 [3,4-dichloropropionanilide]",effect on arthritis,[1],reduces arthritis
same,inhibition of RANKL-induced osteoclastogenesis,[2]; 100 nM,failed to inhibit
same,formation of bone-degrading osteoclasts,[2]; in vitro,reduced
same,concentration needed to block RANKL-induced osteoclast differentiation,"[2]; in vitro, not blocked at concentrations below this",≥ 10 µM
same,effect on Orai channels,Orai channels,inhibits
